“Also recorded” adds a separate entry of the source. Values belong to the compound of their own block, whether it stands above or below them.
Columns and labels:
[1] = Brain penetration in WT mice after i.p. injection, LC-MS (MRM); format: in vivo; conditions: i.p. 1 mg/kg, S/N ratio
Protocol: Compounds of structural formula (II), i.e., GN-29 and GN-205, were tested for an ability to penetrate the brain. WT mice were given an i.p. injection at a dose of 1 mg/kg, which is equivalent to transgenic mice studies. The presence of drugs in brain tissue was measured by LC-MS using MRM methods.

TNF-α = TNF-α ELISA on cortical/hippocampal protein homogenates of LaFerla 3×Tg AD mice; format: in vivo; conditions: 11 week treatment
Description: (§1) Amyloid load also was reduced by drug treatment (data not shown).

LaFerla 3×Tg AD Mice = experiment: STPA latency in LaFerla 3×Tg AD mice after 11 week treatment; format: in vivo; conditions: for latency after 24 h in STPA: 11 week treatment
[2] = tested on: CREB phosphorylated at serine 133; experiment: CREB phosphorylated at serine 133 in LaFerla 3×Tg AD mice; format: in vivo; conditions: 11 week treatment
Description: as §1

[3] = tested on: primary cortical cultures treated with human Aβ1-42; experiment: Neuroprotection in primary neurons treated with Aβ42 oligomers, with picrotoxin preincubation (MTT, LDH); format: cell-based; conditions: 100 μM picrotoxin 1 h preincubation, test compounds 50 μM, Aβ1-42 250 nM, 5 days
Protocol: FIGS. 3A and 3B illustrate neuroprotection in response to amyloid neurotoxicity afforded by compounds of structural formula (I). FIGS. 3A and 3B show neuroprotection in primary neurons treated with Aβ42. In particular, primary cortical cultures at 10-11 DIV were preincubated with 100 μM of picrotoxin for one hour, then perfused with test compounds at 50 μM. Soluble oligomers of human Aβ1-42 then were added at a physiologically relevant concentration of 250 nM. Cultures then were incubated for 5 days, after which time MTT and LDH assays were performed. Results were normalized to untreated DMSO and treated DMSO and statistical analysis was performed with ANOVA, with post-hoc Dunnet's MCT comparing to untreated DMSO, […], ***=p<0.001. Picrotoxin acts as a noncompetitive antagonist for the GABAA receptor chloride channels. It is therefore a channel blocker rather than a receptor antagonist.

[4] = Stability in phosphate buffer (pH 7.4) monitored using HPLC; format: physicochemical; conditions: pH 7.4, HPLC
Description: The stability of compounds of structural formula (II) in phosphate buffer (pH 7.4) was monitored using HPLC.

scopolamine treated mice = experiment: Step through passive avoidance (STPA) in scopolamine treated mice; format: in vivo; conditions: i.p.
Description: The scopolamine treatment results in mice having an attenuated cognitive function. STPA (step through passive avoidance task) is widely used to test long-term memory. The STPA apparatus consists of a two-compartment acrylic box with an illuminated side (15×12×12 cm) connected to a dark side (15×12×12 cm) by a vertical door. The dark side is equipped with an electric grid floor. During the habituation, animals were habituated to the normal behavior of rapidly translocating to the dark from the light side, where they were initially placed. Habituation trials are continued until latency of entering the dark side for each animal is less than 30 seconds. Animals that cannot pass this screening phase are excluded from the study. During the training, animals were trained by receiving an aversive electrical shock (0.5 mA, 2 sec), triggered by entry to the dark compartment, until the latency of entering the dark side reach 300 seconds. At 24 and 72 hours post-training, the animals again are individually placed in the light compartment and the latency to enter the dark compartment, without shock stimulus, is recorded. Statistical analysis of the latency data was performed with one-way ANOVA followed by Bonferroni multiple comparison test. For STPA tests using naïve animals, each animal was administered two ip injections. […]

[5] = tested on: primary rat glial cultures; experiment: Attenuation of inflammatory response (nitrite production, Griess assay) in LPS-treated primary rat glial cultures; format: cell-based; conditions: primary rat glial cells, LPS/OGD, nitrite by Griess assay
Protocol: Attenuation of cytokine and inflammatory response by compounds of structural formula (I) were measured by induction of NOS reflected by inhibition of nitrite production in LPS/IFNγ treated primary rat glial cultures.
Primary mixed glia cultures were obtained as described previously (Vairano et al., 2002). Briefly, 1-2 day old Sprague Dawley rat pups were used to prepare primary mixed glial cultures. Cortices were dissected and meninges were removed. Tissues were cut into small pieces and transferred into PBS (without Ca^2+ and Mg^2+) containing 0.125% Trypsin and DNAse 35500 KU/ml, then incubated at 37° C. for 20 min. The cells were dissociated mechanically resuspended in DMEM (10% FBS), then grown in a T-75 flask. After 11-13 days in culture, the cells were replated at 2×10^5 cells/cm^2 in 96-well plates. Cells were used the next day.
Primary cultured cortical glia were incubated with LPS ([…]) in deoxygenated, glucose-free solution, pH 7.4, containing the following (in mM): NaCl 116, CaCl2 1.8, MgSO4 0.8, KCl 5.4, NaH2PO4 1, NaHCO3 14.7, HEPES 10. The cells were placed in a humidified 37° C. incubator (95% N2, 5% CO2) for 2 hours, then conditioned DMEM media containing LPS or PBS were given back to the cells. The tested compounds ([…]) or MAPK inhibitor (SB203580, […]) were present during and after the OGD. […] Cell viability was measured later by MTT assay. […]

[6] = tested on: primary rat cortical neuron cultures; experiment: Neuroprotection in primary rat cortical neuron cultures subjected to oxygen-glucose deprivation (OGD), MTT and LDH; format: cell-based; conditions: primary cultured rat cortical neurons, OGD 2 h + 24 h reoxygenation, 50 μM
Protocol: Neuroprotection by compounds of structural formula (I) in neurons using oxygen-glucose deprivation (OGD) followed by recovery for 24 hours in primary rat cortical neuron cultures, measured by LDH release and MTT viability was determined (FIG. 1).
Test compounds are compared to vehicle controls and the known neuroprotective agent CMZ. DMSO is dimethyl sulfoxide. Neuroprotection is represented by (i) a high cell viability relative to control as measured by the MIT assay and (ii) a low LDH activity as measured by assay of LDH. The abscissa in FIGS. 1A and 1B identify the compounds tested by GN number. The structures of AR-OH (also referred to as #00) and AR-N3 (also referred to as #9 or GN-9) are provided above. The structure of AR (also referred to as #10) and CMZ are as follows: […]
FIG. 1A illustrates the evaluation of neuroprotection in primary neurons subject to transient OGD assayed by MTT. […] Cell viability was measured 24 hours after reperfusion by MTT assay. Cell viability percentage was calculated relative to 100% protection from CMZ against OGD-reperfusion injury. […]
FIG. 1B illustrates the evaluation of neuroprotection in primary rat neurons subject to transient OGD assayed by LDH. […] Cell viability was measured 24 hours after reperusion by […]. Cell viability percentage was calculated relative to 100% cytoxicity from OGD-reperfusion in the presence of vehicle (DMSO). […]

presence in brain tissue (bioavailability in the brain) [1]: highly bioavailable in the brain
Compound: Cc1ncsc1C(CO[N+](=O)[O-])n1cc(-c2cccnc2)nn1 (stereo not shown) [GN-205]

stability in phosphate buffer [4]: excellent stability
Compound: Cc1ncsc1C(OCCOCCO[N+](=O)[O-])c1ccccc1 (stereo not shown) [GM-30]

presence in brain tissue (bioavailability in the brain) [1]: highly bioavailable in the brain
Compound: Cc1ncsc1C(CO[N+](=O)[O-])c1ccccc1 (stereo not shown) [GN-29]
levels of TNF-α (TNF-α): 1.70±0.09 μg/mg protein | latency after 24 h in STPA (LaFerla 3×Tg AD Mice): 277 ± 14 s | cognitive deficit in the transgenic mouse model (LaFerla 3×Tg AD Mice; in words): reverses a cognitive deficit | levels of CREB phosphorylated at serine 133 [2]: 1.2±0.16 units/mg protein

stability in phosphate buffer [4]: excellent stability
Compound: Cc1ncsc1C(NC(=O)OCCCCO[N+](=O)[O-])c1ccccc1 (stereo not shown) [GN-203]

stability in phosphate buffer [4]: excellent stability
Compound: Cc1ncsc1C(NC(=O)C1(CO[N+](=O)[O-])CC1)c1ccccc1 (stereo not shown) [GN-44]

Further lines, the compound ahead of its results:

Compound: Cc1ncsc1CC[N+](=O)[O-] [GT-1061, reference compound]
levels of TNF-α (TNF-α): 2.18±0.34 μg/mg protein | latency after 24 h in STPA (LaFerla 3×Tg AD Mice): 248 ± 35 s | levels of CREB phosphorylated at serine 133 [2]: 1.07±0.11 units/mg protein

Compound: picrotoxin
effect of picrotoxin on neuroprotection by test compounds [3]: blocks the neuroprotective actions of the test compounds

Compound: Cc1ncsc1C(c1ccccc1)n1cc(-c2cccnc2)nn1 (stereo not shown) [GN-12]
reversal of cognition deficit (STPA) (scopolamine treated mice): reverse a cognition deficit | attenuation of inflammatory response [5]: attenuation of inflammatory response; also recorded: superior neuroprotective and anti-neuroinflammatory activities | neuroprotection [6]: substantial neuroprotection; also recorded: superior neuroprotective and anti-neuroinflammatory activities

Source: patent US8957086B2, “Compounds and methods of treating brain disorders” (The Board of Trustees of the University of Illinois, priority 2010, dated 2015)
